Laboratory results from publication PMC10447463, “Data-mining unveils structure–property–activity correlation of viral infectivity enhancing self-assembling peptides” (Nature Communications, 2023).
Where two headings read alike, the source gives them in different places.

Tests used:
[1] = test system: HIV-1 infection of TZM-bl cells; assay: HIV-1 infectivity enhancement assay, β-galactosidase luminescence; format: cell-based; conditions: for Log10 Infection Rel EF-C: HIV-1 infection of TZM-bl cells
[2] = Turbidity, derived count rate of scattered light; format: physicochemical
[3] = format: physicochemical
Summary of the method: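 Preformed peptide fibrils (1 mg/mL) mixed with 50 µM ThT in PBS, 15 min at RT, fluorescence ex 440/em 488 nm versus PBS blank, triplicates. Zeta potential: peptides at 1 mg/mL in PBS pH 7.4, aged 1 d at RT, diluted in 1 mM KCl, Smoluchowski from electrophoretic mobility.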

With TKTLTKTL the Rel-EFC ([1]; 1.3 µM peptide, infection relative to EF-C (QCKIKQIINMWQ = 1)) was 0,02, the “Log10 Infection Rel EFC” value ([1]; 1.3 µM peptide, log10 of infection relative to EF-C) was -1,67 and the “Log Infectivity” value ([1]; Fig. S7 panel A (plotted against β-sheet content), Log10 infection relative to EF-C, TZM-bl cells, asymmetric std dev errors) was -1.671. For the same sequence, the “Log10 Infection Rel EF-C” value ([1]; Log10 of infection rate relative to EF-C, Figure 3A source data) was -1.67, the “Log10 Infection Rel EF-C” value ([1]; infection rate relative to EF-C, log10, data of Figure 2D) was -1.671 and the “Log10 Infection Rel EF-C” value ([1]; infection rate relative to EF-C, log10, source data of Figure 2C) was -1.671. For the same sequence, the “Abs. Inf.” value ([1]; absolute infection signal, HIV-1 on TZM-bl cells, β-galactosidase luminescence) was 316.7, the “Log10 Inf. rel. to EF-C” value ([1]; log10 of HIV-1 infection of TZM-bl cells relative to EF-C (EF-C = 0)) was -1.671 and the “Count Rate” value ([2]; derived count rate of scattered light (turbidity)) was 514.6. The “Log10 Count Rate” value ([2]; turbidity, derived count rate of scattered light, log10, data of Figure 2D) was 2.711, the “Tht category (> 2 to blank = +)” value ([3]; Fig S10 panel D) was 0 (ThT-inactive (N-Fold <2)) and the “Tht category (> 2 to blank = +)” value ([3]; FigS12 panel A) was 0 (ThT-inactive (N-Fold <2)). For the same sequence, the “ThT Cat,” value ([3]; FigS12 panel B) was 0 (ThT-inactive (N-Fold <2)), the “ThT Cat,” value ([3]; ThT category, 1 if Rel. ThT >2) was 0 (ThT-inactive (N-Fold <2)) and the “ThT Cat.” value ([3]; ThT category, 1 if Rel. ThT >2) was 0 (ThT-inactive (N-Fold <2)). The “ThT Cat. / ThT-Fluorescence (categorical)” value ([3]; ThT-active if fluorescence at least twice the control) was 0 (ThT-inactive (N-Fold <2)).
